Test results published in US20250051355A1, “COMPOUNDS, COMPOSITIONS, AND METHODS” (ACONCAGUA BIO, INC., priority 2023, published 2025).

Experiments:
[1] = target: human calcitonin receptor (CTR) and RAMP3 (AMY3) (Homo sapiens, UniProt O60896+P30988); assay: Amylin Receptor cAMP Assay II; format: cell-based; settings: COS-7/AMY3 cells, cAMP dynamic 2 kit, read-out: Amylin Receptor cAMP Stimulation Activity: EC50
Source text: Amylin Receptor cAMPAssay II
AMYRs are heterodimers of the class B calcitonin (CT) G-protein-coupled receptor (CTR) and receptor activity-modifying proteins (RAMPs). All three RAMPs can interact with the CTR and form AMY1, AMY2, AMY3 with RAMP1, RAMP2 and RAMP3, respectively. Like other class B1 GPCRs, the CT receptor family is canonically coupled to Gs-mediated cAMP production, and measurement of cAMP accumulation has been the primary assay used to determine peptide selectivity and potency.
(§1) To optimize functional activity directed toward Gas coupling, COS-7 cells were stably transfected with human calcitonin receptor (CTR) and RAMP3, simultaneously. 100×concentration of compound working solutions were prepared with 4-fold serial dilution in 384-well Echo LDV plate (Labcyte, Cat #LP-0200-BC). 200 nL/well 100×concentration of compound working solutions were moved to 384-well white microplate (Perkin Elmer, Cat #6007680) using Labcyte ECHO550. […] cells/mL COS-7/AMY3 cell suspensions prepared with assay buffer [HBSS containing 20 mM HEPES (Gibco, Cat #15630-080), 0.5 mM IBMX (Sigma, Cat #15879) and 0.1% Casein (Sigma, Cat #C4765)], 20 μL cell suspensions were added to each well of previous generated assay plate which already contains 200 nL compound at 100×concentration using ThermoFisher Multidrop Combi (2000 cells/well). Seal the plate and incubate at 37° C. with 5% CO2 for 30 min.
(§2) After incubation, the cAMP assay signal was generated using cAMP dynamic 2 kit (Revvity, Cat #62AM4PEC). 10 μL cAMP-d2 working solution was added to each well, followed by 10 μL Anti-cAMP antibody-cryptate working solution which was added to each well using CERTUS FLEX LIQUID DISPENSER The samples were then incubated at room temperature for 1 hour protected from light. the fluorescence was read at 665 and 615 nm with Reader PerkinElmer EnVision 2105.

[2] = target: T1, human calcitonin receptor (CTR) (Homo sapiens, UniProt P30988); assay: Calcitonin receptor (CTR) cAMP Assay; format: cell-based; settings: COS7-human CTR Clone #2 cells, cAMP dynamic 2 kit; read-out: Calcitonin Receptor cAMP Stimulation Activity: EC50
T1 construct: expressed in transfected cells; host or cells: COS-7 (COS7-human CTR Clone #2)
T1 sequence (P30988 25-474): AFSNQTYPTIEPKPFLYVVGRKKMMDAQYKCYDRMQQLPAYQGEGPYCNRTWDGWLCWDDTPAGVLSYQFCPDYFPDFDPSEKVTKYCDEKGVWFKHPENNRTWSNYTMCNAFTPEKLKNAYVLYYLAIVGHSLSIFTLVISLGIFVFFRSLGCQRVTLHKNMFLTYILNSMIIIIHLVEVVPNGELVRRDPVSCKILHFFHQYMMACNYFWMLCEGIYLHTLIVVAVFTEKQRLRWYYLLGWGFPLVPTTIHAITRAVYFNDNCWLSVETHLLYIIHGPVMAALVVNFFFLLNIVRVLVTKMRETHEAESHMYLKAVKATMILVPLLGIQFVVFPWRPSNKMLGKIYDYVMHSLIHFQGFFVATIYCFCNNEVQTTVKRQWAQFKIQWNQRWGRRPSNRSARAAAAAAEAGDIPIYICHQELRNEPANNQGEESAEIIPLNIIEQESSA
Source text: Calcitonin receptor (CTR) cAMPAssay
The calcitonin receptor (CTR) belongs to the subfamily of GPCRs known as the secretin or ‘B’ family of GPCRs. Like other class B1 GPCRs, the CT receptor family is canonically coupled to Gs-mediated cAMP production, and measurement of cAMP accumulation has been the primary assay used to determine peptide selectivity and potency.
as §1, with “to create COS7-human CTR Clone #2 stable cell line. 100× concentration” for “and RAMP3, simultaneously. 100×concentration”, “COS7-human CTR Clone #2” for “COS-7/AMY3”
as §2, with “#62AM4PEC). […] cAMP-d2 working” for “#62AM4PEC). 10 μL cAMP-d2 working”

human calcitonin receptor (CTR) and RAMP3 (AMY3), sequence (O60896 24-148, one chain of several): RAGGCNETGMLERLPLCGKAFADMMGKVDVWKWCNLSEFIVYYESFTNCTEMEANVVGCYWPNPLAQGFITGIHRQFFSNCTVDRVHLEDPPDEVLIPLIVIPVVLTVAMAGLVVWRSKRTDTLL

Row | SMILES | EC50 [1] [nM] | EC50 [2] [nM]
1 | Cc1nnc(-c2c(CCC3CCCCO3)nc3c(c2-c2ccc(C(=O)NCc4ccc(F)c(F)c4)s2)C(=O)N2CCC[C@@H]32)o1 (stereo partly drawn) [Compound 62, N-(3,4-difluorobenzyl)-5-((9aS)-3-(5-methyl-1,3,4-oxadiazol-2-yl)-5-oxo-2-(2-(tetrahydro-2H-pyran-2-yl)ethyl)-7,8,9,9a-tetrahydro-5H-pyrido[2,3-a]pyrrolizin-4-yl)thiophene-2-carboxamide] | 2070 | 129
2 | Cc1nnc(-c2c(CCC3CCOCC3)nc3c(c2-c2cc4ccnc(N[C@@H]5CCc6ncccc65)c4s2)C(=O)N2CCC[C@@H]32)o1 [Compound 64, (S)-4-(7-(((R)-6,7-dihydro-5H-cyclopenta[b]pyridin-5-yl)amino)thieno[2,3-c]pyridin-2-yl)-3-(5-methyl-1,3,4-oxadiazol-2-yl)-2-(2-(tetrahydro-2H-pyran-4-yl)ethyl)-7,8,9,9a-tetrahydro-5H-pyrido[2,3-a]pyrrolizin-5-one] | 306 | 25
3 | Cc1nnc(-c2c(CC3COc4cc(F)ccc43)nc3c(c2-c2ccc(C(=O)NCc4ccc(F)c(F)c4)s2)C(=O)N2CCC[C@@H]32)o1 (stereo partly drawn) [Compound 67, 5-[(9aS)-2-[(6-fluoro-2,3-dihydrobenzofuran-3-yl)methyl]-3-(5-methyl-1,3,4-oxadiazol-2-yl)-5-oxo-7,8,9,9a-tetrahydropyrido[2,3-a]pyrrolizin-4-yl]-N-[(3,4-difluorophenyl)methyl]thiophene-2-carboxamide] | 412 | 22
4 | Cc1nnc(-c2c(CCc3ccc(F)cc3)nc3c(c2-c2ccc(C(=O)NCc4ccc(F)c(F)c4)s2)C(=O)N2CCOC[C@@H]32)o1 [Compound 68, (R)—N-(3,4-difluorobenzyl)-5-(2-(4-fluorophenethyl)-3-(5-methyl-1,3,4-oxadiazol-2-yl)-5-oxo-7,8,10,10a-tetrahydro-5H-pyrido[2′,3′:3,4]pyrrolo[2,1-c][1,4]oxazin-4-yl)thiophene-2-carboxamide] | 168 | 3
5 | Cc1nnc(-c2c(CCC3CCOCC3)nc3c(c2-c2cc4ccnc(N[C@@H]5CCc6ncccc65)c4s2)C(=O)N[C@H]3C(C)C)o1 [Compound 76] | 508 | 71
6 | COc1cccc2c1CC[C@H]2Nc1nccc2cc(-c3c(-c4nnc(C)o4)c(CCC4CCOCC4)nc4c3S(=O)(=O)CC4C(C)C)sc12 (stereo partly drawn) [Compound 77, 3-isopropyl-7-(7-(((R)-4-methoxy-2,3-dihydro-1H-inden-1-yl)amino)thieno[2,3-c]pyridin-2-yl)-6-(5-methyl-1,3,4-oxadiazol-2-yl)-5-(2-(tetrahydro-2H-pyran-4-yl)ethyl)-2,3-dihydrothieno[3,2-b]pyridine 1,1-dioxide] | 427 | 6.4
7 | Cc1nnc(-c2c(CCC3CCOCC3)nc3c(c2-c2cc4ccnc(N[C@@H]5CCc6ncccc65)c4s2)S(=O)(=O)CC3C(C)C)o1 (stereo partly drawn) [Compound 78, 7-(7-(((R)-6,7-dihydro-5H-cyclopenta[b]pyridin-5-yl)amino)thieno[2,3-c]pyridin-2-yl)-3-isopropyl-6-(5-methyl-1,3,4-oxadiazol-2-yl)-5-(2-(tetrahydro-2H-pyran-4-yl)ethyl)-2,3-dihydrothieno[3,2-b]pyridine 1,1-dioxide] | 187 | 13
8 | Cc1nnc(-c2c(CCC3CCOCC3)nc3c(c2-c2cc4ccnc(N[C@@H]5CCc6ncccc65)c4s2)S(=O)(=O)N2CCC[C@@H]32)o1 [Compound 81, (S)-4-(7-(((R)-6,7-dihydro-5H-cyclopenta[b]pyridin-5-yl)amino)thieno[2,3-c]pyridin-2-yl)-3-(5-methyl-1,3,4-oxadiazol-2-yl)-2-(2-(tetrahydro-2H-pyran-4-yl)ethyl)-7,8,9,9a-tetrahydropyrrolo[1′,2′:2,3]isothiazolo[4,5-b]pyridine 5,5-dioxide] | 325 | 7.5
9 | COc1cccc2c1CC[C@H]2Nc1nccc2cc(-c3c(-c4nnc(C)o4)c(CCC4CCOCC4)nc4c3S(=O)(=O)N3CCC[C@@H]43)sc12 [Compound 84, [(R)-4-methoxy-1-indanyl](2-((2S)-10-(5-methyl-1,3,4-oxadiazol-2-yl)-7,7-dioxo-11-[2-(tetrahydro-2H-pyran-4-yl)ethyl]-7λ^6-thia-6,12-diazatricyclo[6.4.0.0^2,6]dodeca-1(12),8,10-trien-9-yl}-1-thia-6-aza-7-indenyl)amine] | 91.6 | 7.4
10 | COc1cccc2c1CC[C@H]2Nc1nccc2cc(-c3c4c(nc(CCc5ccc(F)cc5)c3-c3nnc[nH]3)[C@@H]3CCCN3C4=O)sc12 [Compound 85, (S)-2-(4-fluorophenethyl)-4-(7-(((R)-4-methoxy-2,3-dihydro-1H-inden-1-yl)amino)thieno[2,3-c]pyridin-2-yl)-3-(4H-1,2,4-triazol-3-yl)-7,8,9,9a-tetrahydro-5H-pyrido[2,3-a]pyrrolizin-5-one] | 13 | 0.676
11 | COc1cccc2c1CC[C@H]2Nc1nccc2cc(-c3c4c(nc(CCc5ccc(F)cc5)c3-c3nnc(N)o3)[C@@H]3CCCN3C4=O)sc12 [Compound 86, (2S)-9-(7-[(R)-4-methoxy-1-indanylamino]-1-thia-6-aza-2-indenyl}-10-(5-amino-1,3,4-oxadiazol-2-yl)-11-[2-(p-fluorophenyl)ethyl]-6,12-diazatricyclo[6.4.0.0^2,^6]dodeca-1(8),9,11-trien-7-one] | 9.66 | 0.398
12 | Cc1nnc(-c2c(CCC3CCOCC3)nc3c(c2-c2cn4c(N[C@@H]5CCc6ncccc65)cccc4n2)S(=O)(=O)CC3C(C)C)o1 (stereo partly drawn) [Compound 87, N—(R)-4-aza-1-indanyl(2-(3-isopropyl-6-(5-methyl-1,3,4-oxadiazol-2-yl)-1,1-dioxo-5-[2-(tetrahydro-2H-pyran-4-yl)ethyl]-1λ^6-thia-4-aza-7-indanyl}-1,3a-diaza-4-indenyl)amine] | > 100 | 4380
13 | Cc1nnc(-c2c(CCC3CCOCC3)nc3c(c2-c2cn4cccc(N[C@@H]5CCc6ncccc65)c4n2)S(=O)(=O)CC3C(C)C)o1 (stereo partly drawn) [Compound 88, N—(R)-4-aza-1-indanyl(2-(3-isopropyl-6-(5-methyl-1,3,4-oxadiazol-2-yl)-1,1-dioxo-5-[2-(tetrahydro-2H-pyran-4-yl)ethyl]-1λ^6-thia-4-aza-7-indanyl}-1,3a-diaza-7-indenyl)amine] | 3100 | 1050
